From patent publication US20140364454A1, “METAL-CHELATING COMPOUNDS HAVING AT LEAST ONE POLYAMINO CHAIN” (UNIVERSITE DE RENNES I, priority 2011, published 2014)
pIC50: −log10 of the molar value. Read-outs that look alike come from different tables or passages of the source.

Legend:
Caco-2 cells [1] = assay: LDH release of Caco-2 cells; assay type: cell-based, human; conditions: for % LDH/control 10 μM: Caco-2 J4, 10 μM; for % LDH/control 100 μM: Caco-2 J4, 100 μM
Method: (§1) The action of Quilamines on the cell viability was analyzed on enterocyte cells of the Caco-2 tumor cell line derived from human colon carcinoma and compared with the action of ICL670 in the presence or absence of exogenous iron, after activation (DFMO) or competitive inhibition by spermidine, of the PTS. The operating conditions used are identical to those used for CHO/CHO-MG and HepG2 cells.
As in the case of the other cell lines in proliferative phase presented here above, the dose-effect curves of the action of the Quilamines on the number of viable cells (number of nuclei) are biphase curves with a cytostatic constituent for concentration values of below 30 micromoles per liter and a cytotoxic constituent with release of LDH for concentration values above 30 micromoles per liter. Only this second cytotoxic constituent is observed when the cells of the Caco-2 cell line are treated after confluence (stopping of the proliferation).

Caco-2 cells [2] = assay: Cell viability of proliferating Caco-2 cells (number of nuclei); assay type: cell-based, human; conditions: for pIC50: no exogenous iron; for Constituent 1 (1-10 μM) % cell / Constituent 2 (10-100 μM) % cell: Caco-2 J4, no exogenous iron
Method: as §1
The results for the measurement of the anti-proliferative effect of Quilamines, and of ICL670 on the proliferating cells (cytostatic constituent) when there is no exogenous iron have been listed in the table 4 below.

[3] = system: wild cell line (CHO) of hamster ovarian cells; assay: Anti-proliferative effect on CHO cells, counting of cell nuclei (Hoechst 33342); assay type: cell-based; conditions: 72 h treatment, no exogenous iron; read-out: IC50 CHO
Method: The in vitro efficacy of different Quilamines was tested on a wild cell line (CHO) of hamster ovarian cells having PTS and a mutant cell line CHO-MG without PTS. The two cell types CHO and CHO-MG were treated, 24 hours after being seeded in 96-well microplates, by concentrations of different Quilamines ranging from 0.1 to 400 micromoles per liter. The cytostatic (anti-proliferative) effects and cytotoxic effects of Quilamine after 72 hours' treatment of the cells were assessed respectively by counting cell nuclei after DNA marking by the Hoechst 33342 fluorescent intercalant dye and by analysis of membrane damage detected by the dosing of the lactate dehydrogenase activity (LHD) in the supernatants.
The IC50 inhibitor concentration corresponding to the concentration in Quilamines enables the inhibition at 50% of the cell proliferation was deduced from the dose-effect curves of numeration of the nuclei of the living cells on the CHO and CHO-MG cell lines. […] The lower the value of IC50, the greater the efficiency of the anti-proliferative effect of the tested chelators.
A comparison was made of the cytostatic or anti-proliferative action and the cytotoxic action for 72 h of treatment by Quilamine HQ1-44 and 8-hydroxyquinoline and ICL670, on the CHO cell lines in the presence and without the presence of exogenous iron, in the form of Fe(III) citrate in a concentration of 20 micromoles per liter. The results obtained are shown in FIG. 4, FIG. 4A relating to the results on cell viability and FIG. 4B relating to the results on cell toxicity.

[4] = system: mutant cell line CHO-MG without PTS; assay: Anti-proliferative effect on CHO-MG cells without PTS, counting of cell nuclei; assay type: cell-based, hamster
Text: The IC50 inhibitor concentration corresponding to the concentration in Quilamines enables the inhibition at 50% of the cell proliferation was deduced from the dose-effect curves of numeration of the nuclei of the living cells on the CHO and CHO-MG cell lines. These dose-effect curves are sometimes bi-phase curves as in the case of Quilamine HQ1-44 which has an anti-proliferative constituent (without concomitant release of LDH in supernatant) in the range of concentrations of 0.4 to 3 micromoles per liter and a second cytotoxic constituent accompanied by membrane toxicity expressed by the release of LDH for concentrations of over […]. The lower the value of IC50, the greater the efficiency of the anti-proliferative effect of the tested chelators.
Furthermore, the ratio of the IC50 inhibitor concentrations found for the CHO-MG and the CHO cell lines (Ratio IC50 (CHO-MG/CHO)) was computed for several Quilamines according to the invention. This ratio makes it possible to estimate the selectivity of recognition of the different chelators by the PTS: the higher the ratio, the more clearly is the chelator recognized by the PTS. When this ratio is close to 1, the tested chelator is not recognized or is little recognized by the PTS.

HepG2 cells = assay: Anti-proliferative effect on HepG2 cells (nuclei count or SDH activity); assay type: cell-based, human; conditions: 72 h; for % of HepG2 cells concerned by the anti-proliferative effect: absence of exogenous iron
Text: The majority of the Quilamines, like ICL670, show biphase dose-effect curves in the absence of exogenous iron, with an anti-proliferative constituent for concentration values of 1 to 10 micromoles per liter and a cytotoxic constituent associated with a release of LDH for concentration values of over 10 micromoles per liter. The percentage of HepG2 cells concerned by the anti-proliferative effect and the values of IC50 associated with this cytostatic effect in the absence of exogenous iron were listed in the table 4 below.
The implication of PTS in the cytostatic and cytotoxic action of Quilamines was analyzed in proliferating HepG2 hepatocyte tumor cells after activation of PTS or competitive inhibition of PTS by spermidine, a polyamine naturally present in the organism and most efficaciously captured by the PTS. The conditions of treatment by Quilamines are identical to those described in paragraph III-1.
Inhibiting ornithine decarboxylase (ODC), the key enzyme in the biosynthesis of polyamines, causes a depletion of intra-cell polyamines and an activation of PTS which enables the deficiency to be met. This activation of PTS is done by means of the ODC inhibitor, alpha-difluoromethyl ornithine (DFMO).
The competitive inhibition of PTS by spermidine is prompted by the co-treatment of the cells by the Quilamines in the presence of spermidine, in a concentration of 50 micromoles per liter.

[5] = Calcein test: shift of iron(III) complexated with calcein; assay type: physicochemical; conditions: pH 7.4
Method: The Quilamines HQ1-34, HQ1-344, HQ1-343, HQ1-33, HQ1-333, HQ1-44, HQ1-43, HQ1-444, HQ1-443 according to the invention were synthesized and tested. For each Quilamine, its capacity to shift iron (III) complexated with calcein was tested. Calcein is a fluorescent molecule which has a pFe3+ value of 20.3 with pH 7.4 close to the value measured for ligands of low molecular weight present in human or animal cells and complexating the labile iron pool, such as citrate which has a pFe^3+ value of 19.3 with pH of 7.4 (LIP). The fluorescence of calcein is detected on a microplate, in a concentration of 0.1 micromole per liter, in solution in a HEPES buffer (4-(2-hydroxyethyl)-1-piperazine ethane sulfonic acid) with pH 7.4, in a Fusion (Packard) type a microplate fluorescence reader, under excitation at 450 nanometers and analysis of the fluorescence emission at 515 nanometers. The fluorescence of calcein is extinguished in the presence of iron(III) in the form of hydrochloride (chloride) with a concentration of 1 micromole per liter. The addition of Quilamine in different concentrations ranging from 0.01 to 40 micromoles per liter prompts the shifting of iron(III) complexated with calcein towards Quilamine, resulting in a restoration of the fluorescence of the calcein. The dose-effect curves expressing the percentage of restoration of fluorescence of calcein (relative to the fluorescence of the free molecule in the absence of iron), for each Quilamine concentration, makes it possible to deduce the Quilamine concentration prompting the 50% shift of Fe(III) from calcein and the restoration of its associated fluorescence (CE50). These concentration values CE50 are inversely proportional to the chelating capacity of the chelators and the aptitude to mobilize iron from the LIP of the organism.
Comparatively, measurements were made, under the same conditions, of the efficacy in shifting iron(III) complexated with calcein of the two prior-art chelators, 8-hydroxyquinoline and O-trensox, the latter being currently considered to be the chelator having the greatest affinity for iron.

[6] = Caco-2 J4, cytostatic constituent, read-out: Constituent 1 (1-10 μM) IC50
[7] = Caco-2 J4, cytotoxic constituent, read-out: Constituent 2 (10-100 μM) IC50
[8] = HepG2, absence of exogenous iron, read-out: IC50 associated with the cytostatic effect

SMILES	% LDH/control 10 μM (Caco-2 cells [1])	% LDH/control 100 μM (Caco-2 cells [1])	pIC50 (Caco-2 cells [2]; [6])	pIC50 (Caco-2 cells [2]; [7])	Constituent 1 (1-10 μM) % cell (Caco-2 cells [2])	Constituent 2 (10-100 μM) % cell (Caco-2 cells [2])	pIC50 [3]	pIC50 ([4]; 72 h treatment)	Ratio IC50 (CHO-MG/CHO) ([4]; selectivity of recognition by the PTS)	IC50 (HepG2 cells; [8])	% of HepG2 cells concerned by the anti-proliferative effect (HepG2 cells)	chelating capacity of HQ1-3 type compared with HQ1-4 type Quilamines [5]	pIC50 (Caco-2 cells [2]; Homo sapiens, Caco-2 J4, cytostatic constituent, read-out: Constituent 1 (1-10 μM) IC50)	pIC50 (Caco-2 cells [2]; Homo sapiens, Caco-2 J4, cytotoxic constituent, read-out: Constituent 2 (10-100 μM) IC50)	pIC50 (HepG2 cells; Homo sapiens, HepG2, absence of exogenous iron, read-out: IC50 associated with the cytostatic effect)
NCCCNCCCCNCCCCNCc1ccc2cccc(O)c2n1 [HQ1-443]	88%	189%	6.00	4.46	5%	95%	4.69	3.59	13	2.25 µM	17.5%	–	–	–	–
NCCCCNCCCNCc1ccc2cccc(O)c2n1 [HQ1-34]	100%	229%	6.00	4.35	20%	80%	–	–	–	1.75 µM	5%	better chelating capacity	–	–	–
NCCCCNCCCCNCCCNCc1ccc2cccc(O)c2n1 [HQ1-344]	95%	120%	–	–	22%	78%	–	–	–	–	10%	better chelating capacity	5.52	4.12	5.76
NCCCNCCCCNCCCNCc1ccc2cccc(O)c2n1 [HQ1-343]	89%	255%	5.70	4.40	30%	70%	–	–	–	2.15 µM	12.5%	better chelating capacity	–	–	–
